Assay results: DBAASP
Converted amounts (≈) assume the structure as drawn. “And” between values parts separate entries of the source, which are not always exact repeats. Equal entries are not always repeated.

Legend:
Assay in all cases: ≥ marks a high value that may be exact or a test limit, other limits are often not marked, values filed in µg/mL are converted to µM
[1] = test system: Acinetobacter baumannii ATCC 19606
Acinetobacter baumannii = test system: Acinetobacter baumannii
[2] = test system: Bacillus subtilis CCT 2471
Bacillus subtilis DELTA = test system: Bacillus subtilis DELTA
Bacillus thuringiensis = test system: Bacillus thuringiensis
[3] = test system: Candida albicans ATCC 10231
[4] = test system: Candida albicans ATCC 200955
Candida parapsilosis = test system: Candida parapsilosis
[5] = test system: Enterobacter cloacae ATCC 23355
[6] = test system: Enterococcus faecium ATCC 700221
Escherichia coli 780 = test system: Escherichia coli 780
Escherichia coli 804 = test system: Escherichia coli 804
Escherichia coli 850 = test system: Escherichia coli 850
[7] = test system: Escherichia coli ATCC 8739
[8] = test system: Escherichia coli CCT 1371
[9] = test system: Escherichia coli DH5alpha
Escherichia coli DL7 = test system: Escherichia coli DL7
Escherichia coli MG1655 = test system: Escherichia coli MG1655
Escherichia coli ML-35 = test system: Escherichia coli ML-35
[10] = test system: Klebsiella aerogenes ATCC 13048
[11] = test system: Klebsiella pneumoniae ATCC 700603
Proteus mirabilis = test system: Proteus mirabilis
[12] = test system: Pseudomonas aeruginosa 119
[13] = test system: Pseudomonas aeruginosa 124
[14] = test system: Pseudomonas aeruginosa 86
[15] = test system: Pseudomonas aeruginosa PAO1
Pseudomonas aeruginosa = test system: Pseudomonas aeruginosa
[16] = test system: Staphylococcus aureus 936
[17] = test system: Staphylococcus aureus ATCC 33591
[18] = test system: Staphylococcus aureus ATCC 6538
Staphylococcus aureus MR = test system: Staphylococcus aureus MR
[19] = test system: Staphylococcus epidermidis ATCC 12228
[20] = test system: Staphylococcus saprophyticus
[21] = test system: Zymomonas mobilis ATCC 10988

MIC [1]: 64 µM (≈ 73.8 µg/mL)
MIC (Acinetobacter baumannii): 16 µM (≈ 18.5 µg/mL)
MIC [2]: 17.3 µM (≈ 20 µg/mL)
MIC (Bacillus subtilis DELTA): ≥ 173 µM
MIC (Bacillus thuringiensis): ≥ 173 µM
MIC [3]: 16.9 µM (≈ 19.5 µg/mL)
MIC [4]: ≥ 171 µM
MIC (Candida parapsilosis): ≥ 43.3 µM
MIC [5]: ≥ 173 µM
MIC [6]: ≥ 133 µM
MIC (Escherichia coli 780): 16 µM (≈ 18.5 µg/mL)
MIC (Escherichia coli 804): ≥ 32 µM
MIC (Escherichia coli 850): ≥ 32 µM
MIC [7]: ≥ 35.5 µM
MIC [8]: ≥ 86.6 µM
MIC [9]: ≥ 260 µM
MIC (Escherichia coli DL7): 16 µM (≈ 18.5 µg/mL)
MIC (Escherichia coli MG1655): ≥ 32 µM
MIC (Escherichia coli ML-35): 8 µM (≈ 9.23 µg/mL)
MIC [10]: ≥ 32 µM
MIC [11]: 64 µM and 128 µM
MIC (Proteus mirabilis): ≥ 173 µM
MIC [12]: 4 µM (≈ 4.61 µg/mL)
MIC [13]: ≥ 32 µM
MIC [14]: 4 µM (≈ 4.61 µg/mL)
MIC [15]: 173 µM (≈ 200 µg/mL)
MIC (Pseudomonas aeruginosa): 11.3 µM (≈ 13.1 µg/mL)
MIC [16]: ≥ 64 µM
MIC [17]: ≥ 512 µM
MIC [18]: 43.3 µM and 65 µM
MIC (Staphylococcus aureus MR): ≥ 45.3 µM
MIC [19]: 8 µM (≈ 9.23 µg/mL)
MIC [20]: 4.33 µM (≈ 5 µg/mL)
MIC [21]: ≥ 173 µM
SMILES: CC[C@H](C)[C@H](NC(=O)[C@H](CCCN=C(N)N)NC(=O)[C@H](CCCCN)NC(=O)[C@H](CC(C)C)NC(=O)[C@H](CC(C)C)NC(=O)CN)C(=O)N[C@@H](CCCCN)C(=O)N[C@H](C(=O)N[C@@H](CC(C)C)C(=O)N[C@@H](CC(C)C)C(N)=O)[C@@H](C)O [GLLKRIKTLL]
